Drawing on US9701689B2, “Substituted pyridines and pyridazines as CCR10 receptor inhibitors” (KYOWA HAKKO KIRIN CO., LTD., priority 2012, dated 2017), this text covers inhibition for 24 molecules.

In the assay the target is T1, human CCR10 (Homo sapiens, UniProt P46092).
T1 construct: expressed in transfected cells; host or cells: KJMGER8 cells (Namalwa cell-derived line), beta-estradiol-induced; hCCR10G16 cells
T1 sequence (P46092 1-362): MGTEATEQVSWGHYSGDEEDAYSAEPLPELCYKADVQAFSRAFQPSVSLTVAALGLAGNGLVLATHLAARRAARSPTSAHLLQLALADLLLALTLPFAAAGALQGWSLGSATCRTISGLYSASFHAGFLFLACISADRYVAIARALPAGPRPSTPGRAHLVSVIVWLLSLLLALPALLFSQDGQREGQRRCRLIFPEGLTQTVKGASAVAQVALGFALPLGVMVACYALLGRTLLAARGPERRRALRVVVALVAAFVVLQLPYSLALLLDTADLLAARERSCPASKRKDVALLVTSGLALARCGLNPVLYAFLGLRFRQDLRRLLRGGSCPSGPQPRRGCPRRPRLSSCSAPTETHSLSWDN
Briefly: CCR10 antagonistic effect: calcium assay of human CCR10 (CTACK-induced increase of intracellular calcium in hCCR10G16 cells). The class given is cell-based. As to conditions: at a concentration of not more than 1000 nmol/L; human CCR10-expressing hCCR10G16 cells, 300 nmol/L CTACK added; read-out: inhibition of increase in the calcium ion concentration. The gist of the method:
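Inhibition of CTACK-evoked calcium flux (max minus min Fluo-3 fluorescence over ~5 min, FDSS) was calculated against control in β-estradiol-induced human CCR10/Gα16 KJMGER8 cells, after 30 min compound preincubation at 37 °C; CTACK added from a 300 nmol/L solution.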

As for `Cc1cccc(F)c1Nc1cc(S(N)(=O)=O)ncc1C(=O)N1CCC(c2ccc(F)cc2)CC1` [Compound 72, 4-(2-fluoro-6-methylphenylamino)-5-[4-(4-fluorophenyl)piperidine-1-carbonyl]pyridine-2-sulfonamide], the inhibition at up to 1 µM is not below 50%.
In the case of `NS(=O)(=O)c1cc(Nc2c(F)cccc2F)c(C(=O)N2CCC(c3ccc(F)cc3)CC2)cn1` [Compound 73, 4-(2,6-difluorophenylamino)-5-[4-(4-fluorophenyl)piperidine-1-carbonyl]pyridine-2-sulfonamide] it was not below 50%; in that of `NS(=O)(=O)c1cc(Nc2cccc(F)c2Cl)c(C(=O)N2CCC(c3ccc(F)cc3)CC2)cn1` [Compound 74, 4-(2-chloro-3-fluorophenylamino)-5-[4-(4-fluorophenyl)piperidine-1-carbonyl]pyridine-2-sulfonamide], not below 50%; in that of `NS(=O)(=O)c1cc(Nc2ccc(Cl)c(F)c2Cl)c(C(=O)N2CCC(c3ccc(F)cc3)CC2)cn1` [Compound 75, 4-(2,4-dichloro-3-fluorophenylamino)-5-[4-(4-fluorophenyl)piperidine-1-carbonyl]pyridine-2-sulfonamide], not below 50%.
Consider `Cc1cccc(Nc2cc(S(N)(=O)=O)ncc2C(=O)N2CCC(c3ccc(F)cc3)CC2)c1F` [Compound 76, 4-(2-fluoro-3-methylphenylamino)-5-[4-(4-fluorophenyl)piperidine-1-carbonyl]pyridine-2-sulfonamide], for which the inhibition at up to 1 µM is not below 50%.
In the case of `Cc1c(Cl)ccc(Nc2cc(S(N)(=O)=O)ncc2C(=O)N2CCC(c3ccc(F)cc3)CC2)c1F` [Compound 77, 4-(4-chloro-2-fluoro-3-methylphenylamino)-5-[4-(4-fluorophenyl)piperidine-1-carbonyl]pyridine-2-sulfonamide] it was not below 50%.
As for `COc1ccc(Nc2cc(S(N)(=O)=O)ncc2C(=O)N2CCC(c3ccc(F)cc3)CC2)c(C)c1` [Compound 78, 5-[4-(4-fluorophenyl)piperidine-1-carbonyl]-4-(4-methoxy-2-methylphenylamino)pyridine-2-sulfonamide], the figure is not below 50%; as for `Cc1ccc(Nc2cc(S(N)(=O)=O)ncc2C(=O)N2CCC(c3ccc(F)cc3)CC2)cc1Cl` [Compound 79, 4-(3-chloro-4-methylphenylamino)-5-[4-(4-fluorophenyl)piperidine-1-carbonyl]pyridine-2-sulfonamide], not below 50%; as for `NS(=O)(=O)c1cc(Nc2ccc(Cl)cc2F)c(C(=O)N2CCC(c3ccc(F)cc3)CC2)cn1` [Compound 80, 4-(4-chloro-2-fluorophenylamino)-5-[4-(4-fluorophenyl)piperidine-1-carbonyl]pyridine-2-sulfonamide], not below 50%.
In the case of `NS(=O)(=O)c1cc(Nc2ccc(Cl)cc2Cl)c(C(=O)N2CCC(c3ccc(F)cc3)CC2)cn1` [Compound 81, 4-(2,4-dichlorophenylamino)-5-[4-(4-fluorophenyl)piperidine-1-carbonyl]pyridine-2-sulfonamide] it was not below 50%; in that of `NS(=O)(=O)c1cc(Nc2ccc(Cl)cc2)c(C(=O)N2CCC(c3ccc(F)cc3)CC2)cn1` [Compound 82, 4-(4-chlorophenylamino)-5-[4-(4-fluorophenyl)piperidine-1-carbonyl]pyridine-2-sulfonamide], not below 50%; in that of `Cc1cc(Nc2cc(S(N)(=O)=O)ncc2C(=O)N2CCC(c3ccc(F)cc3)CC2)ccc1F` [Compound 83, 4-(4-fluoro-3-methylphenylamino)-5-[4-(4-fluorophenyl)piperidine-1-carbonyl]pyridine-2-sulfonamide], not below 50%.
Turning to `COc1ccc(Nc2cc(S(N)(=O)=O)ncc2C(=O)N2CCC(c3ccc(F)cc3)CC2)cc1` [Compound 84, 5-[4-(4-fluorophenyl)piperidine-1-carbonyl]-4-(4-methoxyphenylamino)pyridine-2-sulfonamide], the inhibition at up to 1 µM was not below 50%.
As for `COc1ccc(Nc2cc(S(N)(=O)=O)ncc2C(=O)N2CCC(c3ccc(F)cc3)CC2)cc1F` [Compound 86, 4-(3-fluoro-4-methoxyphenylamino)-5-[4-(4-fluorophenyl)piperidine-1-carbonyl]pyridine-2-sulfonamide], the figure is not below 50%.
In the case of `COc1ccc(Nc2cc(S(N)(=O)=O)ncc2C(=O)N2CCC(c3ccc(F)cc3)CC2)c(F)c1` [Compound 87, 4-(2-fluoro-4-methoxyphenylamino)-5-[4-(4-fluorophenyl)piperidine-1-carbonyl]pyridine-2-sulfonamide] it was not below 50%; in that of `COc1ccc(Nc2cc(S(N)(=O)=O)ncc2C(=O)N2CCC(c3ccc(F)cc3)CC2)cc1C` [Compound 88, 5-[4-(4-fluorophenyl)piperidine-1-carbonyl]-4-(4-methoxy-3-methylphenylamino)pyridine-2-sulfonamide], not below 50%.
As for `COc1ccc(Nc2cc(S(N)(=O)=O)ncc2C(=O)N2CCC(c3ccc(F)cc3)CC2)cc1C(F)(F)F` [Compound 89, 5-[4-(4-fluorophenyl)piperidine-1-carbonyl]-4-[4-methoxy-3-(trifluoromethyl)phenylamino]pyridine-2-sulfonamide], the figure is not below 50%.
On to `NS(=O)(=O)c1cc(Nc2ccc(Br)cc2Cl)c(C(=O)N2CCC(c3ccc(F)cc3)CC2)cn1` [Compound 90, 4-(4-bromo-2-chlorophenylamino)-5-[4-(4-fluorophenyl)piperidine-1-carbonyl]pyridine-2-sulfonamide], for which the inhibition at up to 1 µM is not below 50%.
In the case of `NS(=O)(=O)c1cc(Nc2ccc(Br)cc2F)c(C(=O)N2CCC(c3ccc(F)cc3)CC2)cn1` [Compound 91, 4-(4-bromo-2-fluorophenylamino)-5-[4-(4-fluorophenyl)piperidine-1-carbonyl]pyridine-2-sulfonamide] it was not below 50%.
In the case of `COc1ccc(Nc2cc(S(N)(=O)=O)ncc2C(=O)N2CCC(c3ccc(F)cc3)CC2)c(Cl)c1` [Compound 92, 4-(2-chloro-4-methoxyphenylamino)-5-[4-(4-fluorophenyl)piperidine-1-carbonyl]pyridine-2-sulfonamide] it was not below 50%.
In the case of `COc1ccc(C)c(Nc2cc(S(N)(=O)=O)ncc2C(=O)N2CCC(c3ccc(F)cc3)CC2)c1` [Compound 93, 5-[4-(4-fluorophenyl)piperidine-1-carbonyl]-4-(5-methoxy-2-methylphenylamino)pyridine-2-sulfonamide] it was not below 50%; in that of `NS(=O)(=O)c1cc(Nc2ccc3c(c2)CCO3)c(C(=O)N2CCC(c3ccc(F)cc3)CC2)cn1` [Compound 94, 4-(2,3-dihydrobenzofuran-5-ylamino)-5-[4-(4-fluorophenyl)piperidine-1-carbonyl]pyridine-2-sulfonamide], not below 50%.
Consider `NS(=O)(=O)c1cc(Nc2ccccc2)c(C(=O)N2CCC(c3ccc(F)cc3)CC2)cn1` [Compound 95, 5-[4-(4-fluorophenyl)piperidine-1-carbonyl]-4-(phenylamino)pyridine-2-sulfonamide], for which the inhibition at up to 1 µM is not below 50%.
In the case of `Cc1cccc(Nc2cc(S(N)(=O)=O)ncc2C(=O)N2CCC(c3ccc(F)cc3)CC2)c1` [Compound 96, 5-[4-(4-fluorophenyl)piperidine-1-carbonyl]-4-(m-tolylamino)pyridine-2-sulfonamide] it was not below 50%.
